The nature of the assay: Inhibition of tubulin polymerization for 70 mins by microtubule polymerization assay. Also on record: concentration or dose not given beside the values.
As for `COc1ccc(-c2cnoc2-c2cc(C)c(O)c(C)c2)cc1`, the inhibition was determined as 76%. With `COc1ccc(-c2cnoc2-c2ccc(OC)c(OCc3ccccc3)c2)cc1` the figure was 128%; with `COc1ccc(-c2cnoc2-c2ccc(O)cc2)cc1`, 80%; with `COc1ccc(-c2cnoc2-c2ccc(OCc3ccccc3)c(OCc3ccccc3)c2)cc1`, 80%. With `COc1ccc(-c2cnoc2-c2ccc(O)c(O)c2)cc1` the figure was 65%; with `COc1ccc(-c2cnoc2-c2ccc(OC)c(O)c2)cc1`, 50%.

Turning to `COc1ccc(-c2cnoc2-c2cc(C)c(OCc3ccccc3)c(C)c2)cc1`, the inhibition turned out to be 126%. To `CCc1cc(-c2oncc2-c2ccc(OC)cc2)c(OCc2ccccc2)cc1OC` belongs 79%. Regarding `CCc1cc(-c2oncc2-c2ccc(O)cc2)c(O)cc1OC`, the inhibition came to 115%. With `CCc1cc(-c2oncc2-c2ccc(OC)cc2)c(O)cc1OC` the figure was 52%; with `CCc1cc(-c2oncc2-c2ccc(O)cc2)c(O)cc1O`, 134%.

The inhibition is the relative decrease from the control value, in per cent.

These data come from ChEMBL document CHEMBL1667781, “Biological evaluation of KRIBB3 analogs as a microtubule polymerization inhibitor” (Bioorg Med Chem Lett, 2011).
